Data from PubChem BioAssay (NCI).
“And” between values parts separate entries of the source, which are not always exact repeats. Equal entries are not always repeated.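 All cell lines were grown in 96-well plates and treated with compound for 48 hours. The concentration for 50% growth inhibition is given as GI50. TGI: concentration producing complete growth inhibition.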

Experiments:
Test in all cases: growth of human tumour cells (NCI), 48 h
[1] = system: HCT-116 colon
[2] = system: CCRF-CEM leukemia
[3] = system: A549 NSCLC
[4] = system: COLO 205 colon
[5] = system: K-562 leukemia
[6] = system: HOP-92 NSCLC
[7] = system: UACC-62 melanoma
[8] = system: CAKI-1 renal
[9] = system: T-47D breast
[10] = system: SR leukemia

Compound	TGI [1]	TGI [2]	TGI [3]	TGI [4]	TGI [5]	TGI [6]	TGI [7]	TGI [8]	GI50 [1]	GI50 [3]	GI50 [4]	GI50 [9]	TGI [9]	GI50 [5]	GI50 [6]	GI50 [7]	GI50 [8]	GI50 [2]	TGI [10]	GI50 [10]
CCc1cccc(C)c1N1C(=O)C(=O)C(c2nc3ccccc3o2)/C(=N/NC(=S)NN)C1=O (stereo unspecified)	> 100 µM	> 100 µM	> 100 µM	> 100 µM	> 100 µM	> 100 µM	> 100 µM	> 100 µM	–	–	–	–	–	–	–	–	–	–	–	–
CN1CCN(Cc2ccc(NC(=O)c3cncc(C#Cc4c(N)ncc5c(F)cccc45)c3)cc2C(F)(F)F)CC1	1.2 µM	–	1.56 µM	1.42 µM	0.738 µM	0.858 µM	1.81 µM	1.61 µM	517 nM	0.794 µM	638 nM	1940 nM	6.38 µM	5 nM	135 nM	845 nM	0.86 µM	–	–	–
N#CC(C#N)=Cc1ccc(C(O)P(=O)(O)O)cc1 (stereo unspecified)	> 100 µM	> 100 µM	> 100 µM	> 100 µM	> 100 µM	> 100 µM	> 100 µM	> 100 µM	–	–	–	–	–	–	–	–	–	–	–	–
COc1cccc(CCNC(=O)CC(c2ccccc2)(c2ccccc2)c2ccccc2)c1	26.7 µM	> 100 µM	96.5 µM	> 100 µM	> 100 µM	> 100 µM	> 100 µM	50.9 µM	2580 nM	4.11 µM	12800 nM	> 100000 nM	> 100 µM	6030 nM	> 100000 nM	613 nM	3.16 µM	8160 nM	–	–
O=C(O)CCC(=O)Oc1ccc(O)c2c1CCCC2=O	> 100 µM	> 100 µM	> 100 µM	> 100 µM	> 100 µM	–	> 100 µM	–	–	–	–	–	–	–	–	–	–	–	> 100 µM	–
CCOC(=O)NC(=O)c1cn(CCCCCCCCCCC(=O)NCCCN2CCN(CCCNC(=O)CCCCCCCCCCn3cc(C(=O)NC(=O)OCC)c(=O)[nH]c3=O)CC2)c(=O)[nH]c1=O	> 100 µM	> 100 µM	> 100 µM	> 100 µM	> 100 µM	> 100 µM	> 100 µM	> 10 µM	–	–	–	–	–	–	–	–	–	–	> 100 µM	–
N#CC(C(=O)CCC(=O)Nc1ccc(Cl)cc1)c1ccc(Cl)cc1 (stereo unspecified)	> 100 µM	> 100 µM	> 100 µM	> 100 µM	> 100 µM	> 100 µM	> 100 µM	> 100 µM	–	–	–	–	–	–	–	–	–	–	–	–
Cc1cc(Cl)ccc1NC(=O)CC1SC(=NC(=O)c2ccccc2Cl)NC1=O (stereo unspecified)	32 µM	8.66 µM	> 100 µM	–	47.6 µM	35.9 µM	71.2 µM	33.9 µM	–	–	–	–	–	–	–	–	–	–	34.5 µM	–
COC(=O)CC1C2(C)C3=C(C)C(c4ccoc4)CC3OC2C2OC(=O)C3(C)C=CC(=O)C1(C)C23 (stereo unspecified)	2.28 µM	2.17 µM	11.4 µM	3.58 µM	4.82 µM	5.52 µM	3.79 µM	2.15 µM	–	–	–	–	2.92 µM	–	–	–	–	–	–	–
Cc1ccc2nc(Sc3c([N+](=O)[O-])ncn3C)[nH]c2c1	53.9 µM	–	> 100 µM	27.8 µM	–	41.3 µM	35.7 µM	27.5 µM	–	–	–	–	–	–	–	–	–	–	42.2 µM	–
Nc1nc(=S)c2ncn(C3OC(CO)C(O)C3O)c2[nH]1 (stereo unspecified)	–	> 68.2 µM	> 33.6 µM	7.82 µM	> 61.1 µM	7.53 µM	5.67 µM	5.88 µM	347 nM	3.69 µM	2180 nM	511 nM	83.3 µM	490 nM	330 nM	446 nM	0.703 µM	318 nM	–	–
COc1ccc(CN2C(=O)/C(=C\C(=O)c3ccc(OCCN4CCCC4)cc3)c3ccccc32)cc1	–	32.2 µM	36.2 µM	5.52 µM	6.03 µM	4.9 µM	3.38 µM	27 µM	–	13.2 µM	2280 nM	–	–	2050 nM	2090 nM	1840 nM	11.8 µM	3340 nM	–	–
N.N.N.N.N.N#Cc1nn[n-]n1.[Cl-].[Co+3]	> 100 µM	> 100 µM	> 100 µM	> 100 µM	> 100 µM	> 100 µM	> 100 µM	> 100 µM	> 100000 nM	> 100 µM	> 100000 nM	–	–	> 100000 nM	> 100000 nM	> 100000 nM	> 100 µM	> 100000 nM	> 100 µM	> 100000 nM
O=C(Nc1ccccc1)n1cc(-c2ccccn2)c(N2CCOCC2)n1	> 100 µM	> 100 µM	> 100 µM	> 100 µM	> 100 µM	> 100 µM	> 100 µM	49.7 µM	–	–	–	–	–	–	–	–	–	–	–	–
Cc1cncc(-c2nc(NCCc3c[nH]c4ccccc34)c3ncn(C(C)C)c3n2)c1	> 100 µM	9.84 µM	> 100 µM	7.26 µM	–	15.5 µM	12.1 µM	30.4 µM	3880 nM	4.28 µM	2900 nM	4980 nM	19.6 µM	–	3630 nM	3300 nM	4.12 µM	2990 nM	–	–
COC(=O)[C@H](Cc1ccccc1)NNC(=O)c1csc([C@@H](C[C@H](C(C)C)N(C)C(=O)[C@@H](NC(=O)[C@H]2CCCCN2C)C2CC2)OC(C)=O)n1	25 µM and > 100 µM	25 µM and > 100 µM	25 µM and > 100 µM	–	25 µM and > 100 µM	–	25 µM	–	–	–	–	–	–	3.02 nM and 2.5 nM and 24.3 nM	–	17.6 nM and 2.5 nM	–	3.77 nM and 2.5 nM and 21.3 nM	25 µM and > 100 µM	1.39 nM and 2.5 nM
CN1C(c2ccccc2)CC(C)(O)CC1c1ccccc1 (stereo unspecified)	> 100 µM	> 100 µM	> 100 µM	> 100 µM	> 100 µM	> 100 µM	> 100 µM	> 100 µM	–	–	–	–	–	–	–	–	–	–	> 100 µM	–
Cc1cc2c(C(=O)NCC#N)cccc2n1-c1nc2c(c(NCc3ccccc3)n1)CCCC2	0.637 µM	–	1.28 µM	0.404 µM	> 100 µM	–	0.482 µM	> 100 µM	185 nM	0.312 µM	201 nM	269 nM	1.53 µM	372 nM	–	203 nM	0.666 µM	–	10.3 µM	257 nM
